Reference: patent publication US20070105779A1, “Isolated, ssx-2 and ssx-2 related peptides useful as hla binders and ctl epitopes, and uses thereof” (priority 2002, published 2007)
Where “and” joins values, the source holds several entries; their conditions need not be identical. Equal values may be shown once. No end group written: not given here.

Key:
HLA-A2 = target: T1, HLA-A2 (Homo sapiens, UniProt P04439, D140Y/D185E/D98H/E176V/E277Q/G131W/G231S/I119V/I121R/I166T/I218V/L300P/L318F/N151K/N90K/P208A/P217A/Q86G/Q94H/R138H/R169H/T345S); experiment: functional competition assay for peptide binding to HLA-A2 (inhibition of tyrosinase 368-376 recognition by CTL clone LAU 156/34 on T2 cells); format: cell-based; details: for IC50: competitor peptide concentration for 50% inhibition of target cell lysis
T1 construct: using T2 cells, because these express HLA-A2; endogenous in cells; host or cells: T2 cells
Experimental: T cell recognition by clone LAU 50/4D7 and binding to HLA-A2 by these peptides were determined experimentally. Peptide binding to HLA-A2 was determined in a functional competition assay.

T cell clone LAU 50/4D7 = experiment: 51Cr release assay, T2 cells pulsed with serial dilutions of peptide, recognition by CTL clone LAU 50/4D7; format: cell-based, human; details: for EC50: T2 cells pulsed with peptide, read-out: 50% maximal lysis; for recognition by CTL clone LAU 50/4D7 (in words): 51Cr release assay
Experimental: CTL clone LAU 50/4D7 was used in a ^51Cr release assay using standard methods. In brief, cells of target cell line Me275, which is a melanoma line derived from the same patient as was LAU 50/4D7, were labeled with ^51Cr for one hour at 37° C., as were control cells “T2.” This line, more accurately referred to as “CEMx721.T2,” is described by Salter, et al., Immunogenetics 21:235-248 (1985).
Cells were washed, three times, and then were incubated with the LAU 50/4D7 cells, at various effector:target ratios (0.1/1, 1/1, 10/1, 100/1) Four hours after incubation at 37° C., chromium in the supernatant was measured. Percent specific lysis was calculated as: [formula]
To determine T cell recognition of the peptides, standard ^51Cr release assays were performed using T2 cells pulsed with serial dilutions of each peptide. The peptide dose required to induce half maximal lysis was determined.

T cell clone LAU50/4D7 = experiment: lysis assay, T2 cells pulsed with 1 μM peptide, T cell clone LAU50/4D7; format: cell-based, human; details: peptide 1 μM, 37° C. 1 hour, T2 targets, 4 hours with T cells
Experimental: In these assays, T2 cells were used as the target, and were incubated with each of the listed peptides, at a concentration of 1 μM, at 37° C. for 1 hour. The T2 cells were then washed to remove excess peptides, and the T cells were incubated with the peptide pulsed target T2 cells for 4 hours at 37° C.

LAU 50/4D7 = experiment: 51Cr release assay with twelve known HLA-A2 binders, peptide specificity of LAU 50/4D7; format: cell-based, human; details: HLA-A2+ target cells, peptide added after 51Cr labeling
Experimental: In these assays, following ^51Cr labeling of the HLA-A2^+ target cells, peptides were added and then lysis was determined, as described supra.

[1] = relative to SEQ ID NO: 1 (=1), concentration for 50% inhibition of target cell lysis
[2] = second table, similar assays, relative to SEQ ID NO: 1
[3] = relative to SEQ ID NO: 1 (=1), peptide dose for half maximal lysis, T2 cells, clone LAU 50/4D7

Compound | IC50 (HLA-A2) [nM] | Relative Binding (HLA-A2; [1]) | Relative Binding (HLA-A2; relative to SEQ ID NO: 17 (=1)) | Relative Binding (HLA-A2; [2]) | EC50 (T cell clone LAU 50/4D7; clone LAU 50/4D7) [nM] | Relative Recognition (T cell clone LAU 50/4D7; [3]) | Relative Recognition (T cell clone LAU 50/4D7; relative to SEQ ID NO: 17 (=1)) | Relative Recognition (T cell clone LAU 50/4D7; [2]) | % Lysis (T cell clone LAU50/4D7) | recognition by CTL clone LAU 50/4D7 (in words) (T cell clone LAU 50/4D7) | recognition by CTL clone LAU 50/4D7 (in words) (T cell clone LAU 50/4D7; listed as 1) | recognition of known HLA-A2 presented peptides by LAU 50/4D7 (LAU 50/4D7)
CC[C@H](C)[C@H](NC(=O)[C@H](CCCCN)NC(=O)[C@@H]1CCCN1C(=O)[C@H](C)NC(=O)[C@H](C)NC(=O)[C@H](C)N)C(=O)N[C@@H](Cc1ccccc1)C(=O)N[C@@H](C)C(=O)N[C@@H](C)C(=O)O [SEQ ID NO: 6] | 100 | 0.2 | 2 | 0.2 | > 100 | 10^−5 | <10^−5 | <10^−5 |  |  |  | 
CC[C@H](C)[C@H](NC(=O)[C@H](CCCCN)NC(=O)[C@H](CCC(=O)O)NC(=O)[C@H](CO)NC(=O)[C@H](C)NC(=O)[C@@H](N)CCCCN)C(=O)N[C@@H](Cc1ccccc1)C(=O)N[C@@H](Cc1ccc(O)cc1)C(=O)N[C@H](C(=O)O)C(C)C [SEQ ID NO: 17, reference compound] |  |  |  |  | 0.06 |  |  |  | 70% and 68% | in the same range as that of SEQ ID NO: 1 |  | 
AAAPKIFYA [SEQ ID NO: 1] | 20 | 1 | 10 |  | 0.02 | 1 | 3 |  |  | most active | at least equal to the natural peptide | 
GLYDGMEHL [SEQ ID NO: 35, derives from MAGE-A10; HLA-A2; negative control] |  |  |  |  |  |  |  |  | 2% |  |  | 
NY-ESO-1157-165: known HLA-A2 binder peptide |  |  |  |  |  |  |  |  |  |  |  | failed to recognize
gp100208-217: known HLA-A2 binder peptide (TITDQVPFSV; UniProt P40967 208-217, looked up, fragment) |  |  |  |  |  |  |  |  |  |  |  | failed to recognize
gp100280-288: known HLA-A2 binder peptide |  |  |  |  |  |  |  |  |  |  |  | failed to recognize
tyrosinase1-9: known HLA-A2 binder peptide (MLLAVLYCL; UniProt P14679 1-9, looked up, fragment) |  |  |  |  |  |  |  |  |  |  |  | failed to recognize

The next lines start with results.

IC50 (HLA-A2) [nM] | Relative Binding (HLA-A2; [1]) | Relative Binding (HLA-A2; relative to SEQ ID NO: 17 (=1)) | Relative Binding (HLA-A2; [2]) | EC50 (T cell clone LAU 50/4D7; clone LAU 50/4D7) [nM] | Compound | Relative Recognition (T cell clone LAU 50/4D7; [3]) | Relative Recognition (T cell clone LAU 50/4D7; relative to SEQ ID NO: 17 (=1)) | Relative Recognition (T cell clone LAU 50/4D7; [2]) | % Lysis (T cell clone LAU50/4D7) | recognition by CTL clone LAU 50/4D7 (in words) (T cell clone LAU 50/4D7) | recognition by CTL clone LAU 50/4D7 (in words) (T cell clone LAU 50/4D7; listed as 1) | recognition of known HLA-A2 presented peptides by LAU 50/4D7 (LAU 50/4D7)
133 | 0.16 | 1.5 | 0.16 | 0.2 | AAAAKIFYA [SEQ ID NO: 3] | 0.1 | 0.3 | 0.1 |  |  |  | 
22 | 0.9 | 9 | 0.9 | > 100 | AAAPAIFYA [SEQ ID NO: 4] | <10^−5 | <10^−5 | <10^−6 |  |  |  | 
200 | 0.1 | 1 | 0.1 | 0.3 | AAAPKAFYA [SEQ ID NO: 5] | 0.05 | 0.2 | 0.06 |  |  |  | 
286 | 0.07 | 0.7 |  | 2 | AAGPKIFYA [SEQ ID NO: 2] | 0.01 | 0.03 |  |  |  |  | 
 |  |  |  | 0.06 | AASEKIFYV [SEQ ID NO: 18] |  | 1 |  |  | at least equal to the natural peptide |  | 
